# Test results: EP4768499A1, “MACROCYCLIC PEPTIDE COMPOUND HAVING CELL MEMBRANE PERMEABILITY AND METABOLIC STABILITY, AND LIBRARY CONTAINING SAME” (Chugai Seiyaku Kabushiki Kaisha, priority 2023, dated 2025)
# Starred links: 1 amine or outer side, 2 acyl side, 3 side chain; linkers in the order of their positions; H or OH if unused. Positions of bridges follow the written chain, without caps; N, C: chain ends. Non-standard residues stand in square brackets, D forms with d. Residues, ends and D or L forms follow the SMILES beside them. *: point of attachment. NMeF = CN[C@@H](Cc1ccccc1)C(=O)O; NMeGABA = CN(CCCC(=O)[*:2])[*:1]; NMeI = CC[C@H](C)[C@H](NC)C(=O)O; hPhe = N[C@@H](CCc1ccccc1)C(=O)O; NMeβAla = CN(CCC(=O)[*:2])[*:1]; NMeD = CN[C@@H](CC(=O)O)C(=O)O; NMeL = CN[C@@H](CC(C)C)C(=O)O; NMeV = CN[C@H](C(=O)O)C(C)C; d(β3hA) = C[C@@H](N)CC(=O)O; NMeA = CN[C@@H](C)C(=O)O; Piperidide = C1CCN(*)CC1; Abu = CC[C@H](N)C(=O)O; Sar = CNCC(=O)O; tBu = CC(C)(C)*
# Experiments:
# [1] = Metabolic stability test: liver microsomal stability assay; assay type: in vitro ADME, mouse; settings: mouse liver microsomes 0.5 mg protein/mL, compound 1 µM; for microsomal CLint at 1 µM: male, pH 7.4, presence of NADPH, read-out: Mouse Hepatic Microsome CLh,int NADPH(+); for Mouse Hepatic Microsome CLh,int NADPH(-): absence of NADPH
# Experimental: Under the presence and absence of NADPH, a microsome solution prepared to a concentration of 0.5 mg protein/mL using 100 mM phosphate buffer (pH 7.4) with mouse liver microsomes (male, Corning Incorporated, USA) and the compound at a concentration of 1 µM were subjected to a metabolic reaction for 22 minutes, 44 minutes, or 66 minutes. Protein removal processing was performed over time using acetonitrile, and the remaining amount of unchanged compound was analyzed using LCMS to calculate the intrinsic hepatic clearance (CLh, int) (Table 6).
# [2] = system: Caco-2 cells; assay: Membrane permeability test using Caco-2 cells with preincubation; assay type: in vitro ADME; settings: preincubation 20 to 24 hours; for Caco2 Papp (10^-6 cm/sec): Caco-2 cells, apical FaSSIF/HBSS 1% DMSO pH 6.0, basal HBSS 4% BSA pH 7.4, basal sample at 180 minutes; for Caco2 Papp: Apical FaSSIF/HBSS pH 6.0, Basal HBSS 4% BSA pH 7.4, 180 minutes
# Experimental: The permeability coefficient (Caco-2 Papp (cm/sec)) is calculated using a numerical expression 1. [Expression 1] Papp = (1)/(C1 (0) × S) × (dQ)/(dt) [formula] dQ/dt represents the permeation rate of drug (the amount of drug appearing on the Basal side per unit time), S represents the total surface area of cells, and C1(0) represents the concentration of drug added on the Apical side.
# Using a mixed medium of FaSSIF containing 1% DMSO and DMEM as the apical medium, and DMEM as the basal medium, Caco-2 cells and peptide compounds are preincubated for 20 to 24 hours under conditions of 5% CO2, 37°C, and 80 rpm. Afterward, the culture medium on the Apical side and the Basal side are aspirated and washed, the peptide compound was added to a FaSSIF/HBSS buffer solution containing 1% DMSO (1% DMSO) (pH 6.0) at the Apical side, a HBSS buffer solution containing 4% BSA (pH 7.4) was added to the Basal side, and measurement of membrane permeability is started. Each well is shaken under 5% CO2 at 37°C and 80 rpm, and at 180 minutes after the start of shaking, a sample on the Basal side is collected. The amount of peptide compounds in the sample was measured using LCMS, and the membrane permeability coefficient was calculated from the permeation amount (Table 7). When calculating the membrane permeability coefficient (Papp) from the permeation amount, the following expression can be used. Papp = (dQ)/(dt) × (1)/(C1 (0) × S) [formula]
# dQ/dt represents the permeation rate of drug (the amount of drug appearing on the Basal side per unit time), C1(0) represents the concentration of drug added on the Apical side, and S represents the total surface area of cells.
microsomal CLint at 1 µM [1] [µL/min/mg],"Mouse Hepatic Microsome CLh,int NADPH(-) [1] [µL/min/mg Protein]",Caco2 Papp (10^-6 cm/sec) [2],Caco2 Papp [2],Structure (SMILES)
32.5,26.2,0.04 10^-6 cm/sec,0.04 10^-6 cm/sec,CC[C@@H]1NC(=O)[C@H]([C@@H](C)CC)NC(=O)[C@H](Cc2ccccc2)N(C)C(=O)[C@H](CC(C)C)N(C)C(=O)[C@H](CC(C)C)NC(=O)CCN(C)C(=O)C[C@@H](C(=O)N2CCCCC2)NC(=O)[C@H](C(C)C)NC(=O)[C@H](CC(C)C)N(C)C(=O)[C@H](C)N(C)C(=O)[C@H](C(C)C)NC(=O)[C@H](CC(C)C)N(C)C(=O)[C@H](COC(C)(C)C)NC(=O)[C@H](Cc2ccccc2)N(C)C1=O [pd015] ([NMeβAla]L[NMeL][NMeF]I[Abu][NMeF]S(tBu)[NMeL]V[NMeA][NMeL]VD-Piperidide; lactam N-14)
24.6,28.8,0.21 10^-6 cm/sec,0.21 10^-6 cm/sec,CC[C@@H]1NC(=O)CCN(C)C(=O)C[C@@H](C)NC(=O)[C@H](CC(C)C)N(C)C(=O)[C@H]([C@@H](C)O)NC(=O)[C@H](C)N(C)C(=O)[C@H]([C@@H](C)CC)NC(=O)[C@H](CCc2ccccc2)NC(=O)[C@H](CC(C)C)N(C)C(=O)[C@H](C)N(C)C(=O)[C@H](Cc2ccccc2)N(C)C(=O)[C@@H]2CCCN2C(=O)[C@H]([C@@H](C)CC)NC(=O)[C@H](CC(C)C)N(C)C1=O [pd051] (cyclo([Abu][NMeL]IP[NMeF][NMeA][NMeL][hPhe]I[NMeA]T[NMeL][d(β3hA)][NMeβAla]))

# The next lines start with the compound.
Structure (SMILES),microsomal CLint at 1 µM [1] [µL/min/mg],"Mouse Hepatic Microsome CLh,int NADPH(-) [1] [µL/min/mg Protein]",Caco2 Papp (10^-6 cm/sec) [2],Caco2 Papp [2]
CC[C@@H]1NC(=O)[C@H](CC(C)C)N(C)C(=O)[C@H](COC(C)(C)C)NC(=O)[C@H](Cc2ccccc2)N(C)C(=O)[C@H](CC)NC(=O)[C@H](Cc2ccccc2)N(C)C(=O)[C@H](C)N(C)C(=O)[C@H](CC(C)C)N(C)C(=O)[C@H](CC(C)C)NC(=O)CCCN(C)C(=O)C[C@@H](C(=O)N2CCCCC2)NC(=O)[C@H](CC(C)C)N(C)C(=O)[C@H](C(C)C)NC(=O)[C@H](C)N(C)C1=O [pd016] ([NMeGABA]L[NMeL][NMeA][NMeF][Abu][NMeF]S(tBu)[NMeL][Abu][NMeA]V[NMeL]D-Piperidide; lactam N-14),49.9,32.9,0.47 10^-6 cm/sec,0.47 10^-6 cm/sec
CC[C@H](C)[C@H]1C(=O)N[C@@H](CC(C)C)C(=O)N(C)[C@@H](CC(C)C)C(=O)N(C)[C@@H](C(C)C)C(=O)N(C)[C@@H](C)C(=O)N[C@@H]([C@@H](C)O)C(=O)N(C)[C@@H](CC(C)C)C(=O)N[C@H](C)CC(=O)N(C)CCC(=O)N[C@@H](CCc2ccccc2)C(=O)N(C)[C@@H](CC(C)C)C(=O)N2CCC[C@H]2C(=O)N(C)[C@@H](Cc2ccccc2)C(=O)N(C)[C@@H](C)C(=O)N1C [pd060] (cyclo(L[NMeL][NMeV][NMeA]T[NMeL][d(β3hA)][NMeβAla][hPhe][NMeL]P[NMeF][NMeA][NMeI])),32.4,38.6,0.63 10^-6 cm/sec,0.63 10^-6 cm/sec
CC[C@H](C)[C@@H]1NC(=O)[C@H]([C@@H](C)CC)N(C)C(=O)[C@@H](C)NC(=O)C[C@@H](C(=O)N2CCCCC2)N(C)C(=O)[C@H](C(C)C)NC(=O)[C@H](Cc2ccccc2)N(C)C(=O)[C@H](C(C)C)NC(=O)[C@H](CC(C)C)N(C)C(=O)[C@H](C)NC(=O)CN(C)C(=O)[C@H](CC(C)C)N(C)C(=O)[C@H](C(C)C)NC(=O)[C@H](C)N(C)C(=O)[C@H](Cc2ccccc2)N(C)C1=O [pd074] ([dA][NMeI]I[NMeF][NMeA]V[NMeL][Sar]A[NMeL]V[NMeF]V[NMeD]-Piperidide; lactam N-14),26.9,26.9,0.22 10^-6 cm/sec,0.22 10^-6 cm/sec
